Measurements published in article PMC9516332 (Frontiers in Oncology, 2022).

How the values were obtained:
Experiment in all cases: Kinase panel profiling at 1 µmol/L (MSA or IMAP), percentage inhibition
Format in all cases: biochemical
[1] = molecular target: panel of 255 wild-type kinases (Homo sapiens, UniProt P49761); conditions: kinase CLK3; 1 µmol/L single concentration; read-out: %-inhibition at 1 µmol/L, CLK3
[2] = molecular target: panel of 255 wild-type kinases (Homo sapiens, UniProt P54764); conditions: kinase EPHA4; 1 µmol/L single concentration; read-out: %-inhibition at 1 µmol/L, EPHA4
[3] = molecular target: T1, panel of 255 wild-type kinases (Homo sapiens, UniProt Q13976); conditions: kinase PGK; 1 µmol/L single concentration; read-out: %-inhibition at 1 µmol/L, PGK
T1 sequence (Q13976 1-671): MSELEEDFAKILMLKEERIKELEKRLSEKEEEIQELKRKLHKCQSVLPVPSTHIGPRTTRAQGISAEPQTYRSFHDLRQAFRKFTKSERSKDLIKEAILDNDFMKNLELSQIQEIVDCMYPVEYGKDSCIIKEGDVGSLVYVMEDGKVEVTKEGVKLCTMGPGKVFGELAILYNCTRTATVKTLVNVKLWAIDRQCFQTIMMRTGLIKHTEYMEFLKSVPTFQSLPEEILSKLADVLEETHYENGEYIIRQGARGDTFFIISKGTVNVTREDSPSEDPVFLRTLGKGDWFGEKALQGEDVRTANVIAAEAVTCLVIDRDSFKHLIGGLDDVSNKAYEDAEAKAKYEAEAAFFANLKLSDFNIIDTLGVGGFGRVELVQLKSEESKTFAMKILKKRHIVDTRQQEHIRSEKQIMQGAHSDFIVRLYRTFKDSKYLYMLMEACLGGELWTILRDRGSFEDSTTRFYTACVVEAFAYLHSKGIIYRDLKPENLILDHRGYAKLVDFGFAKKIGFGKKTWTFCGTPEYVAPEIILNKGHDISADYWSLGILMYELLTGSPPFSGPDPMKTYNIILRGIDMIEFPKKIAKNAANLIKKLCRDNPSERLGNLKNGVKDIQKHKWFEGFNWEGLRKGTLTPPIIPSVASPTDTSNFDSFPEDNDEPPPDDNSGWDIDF

[4] = molecular target: panel of 255 wild-type kinases (Homo sapiens, UniProt Q13557); conditions: CaMK2δ kinase assay; 1 µmol/L single concentration; read-out: %-inhibition CaMK2δ
[5] = molecular target: T2, panel of 255 wild-type kinases (Homo sapiens, UniProt Q9UF33); conditions: kinase EPHA6; 1 µmol/L single concentration; read-out: %-inhibition at 1 µmol/L, EPHA6
T2 sequence (Q9UF33 23-1036): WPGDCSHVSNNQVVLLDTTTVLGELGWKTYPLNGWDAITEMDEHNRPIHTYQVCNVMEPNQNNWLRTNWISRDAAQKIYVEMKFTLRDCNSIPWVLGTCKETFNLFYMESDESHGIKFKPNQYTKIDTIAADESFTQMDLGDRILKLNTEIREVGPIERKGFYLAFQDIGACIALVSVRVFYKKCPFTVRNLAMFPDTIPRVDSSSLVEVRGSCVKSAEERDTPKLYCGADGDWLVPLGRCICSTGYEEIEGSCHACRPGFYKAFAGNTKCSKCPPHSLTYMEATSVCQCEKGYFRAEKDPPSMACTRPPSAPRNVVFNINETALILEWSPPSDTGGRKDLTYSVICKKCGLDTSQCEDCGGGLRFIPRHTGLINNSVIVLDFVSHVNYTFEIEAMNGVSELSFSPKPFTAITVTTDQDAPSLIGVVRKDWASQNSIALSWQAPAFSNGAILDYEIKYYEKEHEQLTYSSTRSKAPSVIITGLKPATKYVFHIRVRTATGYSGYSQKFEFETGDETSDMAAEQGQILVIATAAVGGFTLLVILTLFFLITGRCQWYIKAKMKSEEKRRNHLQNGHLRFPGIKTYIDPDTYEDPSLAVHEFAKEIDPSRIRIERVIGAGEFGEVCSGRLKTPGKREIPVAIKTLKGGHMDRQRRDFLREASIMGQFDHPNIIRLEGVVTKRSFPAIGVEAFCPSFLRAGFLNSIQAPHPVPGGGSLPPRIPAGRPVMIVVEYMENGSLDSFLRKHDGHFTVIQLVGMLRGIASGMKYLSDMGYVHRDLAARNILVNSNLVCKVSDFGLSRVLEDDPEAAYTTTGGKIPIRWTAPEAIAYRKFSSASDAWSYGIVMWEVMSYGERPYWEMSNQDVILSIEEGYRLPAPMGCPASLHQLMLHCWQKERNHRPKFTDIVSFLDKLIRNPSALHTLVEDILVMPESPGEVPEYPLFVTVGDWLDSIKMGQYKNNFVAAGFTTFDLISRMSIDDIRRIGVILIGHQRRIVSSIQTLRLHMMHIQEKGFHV

[6] = molecular target: panel of 255 wild-type kinases (Homo sapiens, UniProt P08581); conditions: MET; 1 µmol/L single concentration
[7] = molecular target: panel of 255 wild-type kinases (Homo sapiens, UniProt Q13464); conditions: kinase ROCK1; 1 µmol/L single concentration; read-out: %-inhibition at 1 µmol/L, ROCK1
[8] = molecular target: panel of 255 wild-type kinases (Homo sapiens, UniProt P51617); conditions: kinase IRAK1; 1 µmol/L single concentration; read-out: %-inhibition at 1 µmol/L, IRAK1
[9] = molecular target: panel of 255 wild-type kinases (Homo sapiens, UniProt Q9HC98); conditions: NEK6; 1 µmol/L single concentration; read-out: %-inhibition, NEK6
[10] = molecular target: panel of 255 wild-type kinases (Homo sapiens, UniProt Q05397); conditions: kinase FAK; 1 µmol/L single concentration; read-out: %-inhibition at 1 µmol/L, FAK
[11] = molecular target: panel of 255 wild-type kinases (Homo sapiens, UniProt Q00526); conditions: CDK3/CycE1 kinase assay; 1 µmol/L single concentration; read-out: %-inhibition CDK3/CycE1
[12] = molecular target: panel of 255 wild-type kinases (Homo sapiens, UniProt P43405); conditions: kinase SYK; 1 µmol/L single concentration; read-out: %-inhibition at 1 µmol/L, SYK
[13] = molecular target: panel of 255 wild-type kinases (Homo sapiens, UniProt P06213); conditions: kinase INSR; 1 µmol/L single concentration; read-out: %-inhibition at 1 µmol/L, INSR

## C[C@H](Nc1ncnc2nc[nH]c12)c1cc2cccc(Cl)c2c(=O)n1-c1ccccc1 [duvelisib]
[1]
  inhibition at 1 µM: 1.78%
[2]
  inhibition at 1 µM: -0.265%
[3]
  inhibition at 1 µM: 1.63%
[4]
  inhibition at 1 µM: 4%
[5]
  inhibition at 1 µM: 5.71%
[6]
  inhibition at 1 µM: 1.63%
[7]
  inhibition at 1 µM: -4.36%
[8]
  inhibition at 1 µM: -8%
[9]
  inhibition at 1 µM: -1%
[10]
  inhibition at 1 µM: 4%
[11]
  inhibition at 1 µM: -0.613%
[12]
  inhibition at 1 µM: -2.35%
[13]
  inhibition at 1 µM: -0.398%
